From patent US20090074802A1, “IMMUNOMODULATING OLIGOPEPTIDES” (priority 2006, published 2009)

Tested on: Balb/c mice immunized with KLH
Experiment: Humoral immune response to T-cell dependent antigen (KLH) in mice; isotype-specific anti-KLH ELISA of serum
Type: in vivo, mouse
Conditions: day 28 after a single injection; 20 μg peptide i.p.; KLH 20 μg s.c. with complete Freund adjuvant
Experimental: To investigate the effect of B134, a representative of the XPY family, inbred SPF mice (Balb/cAwNCrl, 7 to 8 week old, Charles River Laboratories GmbH, Germany) were immunized with KLH, a T-cell dependent antigen. 3 mice per group were injected subcutaneously in the presence of complete Freund adjuvant (50/50 v/v). The mix of antigen (20 μg in 100 μl) with adjuvant (Sigma, #F-5881) was emulsified and injected in the neck region. At the same day 20 μg of immunomodulator B134 or B211 were injected in 200 μl of PBS intraperitoneally. Samples of blood (50-70 μl) were collected from mice on day 7, 14, 21, and 28 from the leg vein. Serum was prepared by clotting the blood for 2 hours at 37° C., followed by 18 hours at 8° C., and centrifugation at 10,000 rpm in an Eppendorf-like centrifuge. Sera were stored diluted with antibody stabilizer (SkyTec ABB500) at 4° C., and analyzed in ELISA simultaneously. For the latter assay, the 96 wells ELISA plates (Greiner, #655061) were coated with KLH (soluble, Sigma H7017) in phosphate buffered solution (PBS), 0.2 μg/well overnight at 4° C. The diluted sera were incubated with antigen ([…]) for 1 hour at room temperature, followed by a wash with PBS/0.1% Tween-20. The binding of mouse antibodies to KLH was detected using isotype specific anti-mouse immunoglobulins, conjugated with HRP (Southern Biotechnology Ltd., anti-mouse IgM #1021-05, anti-mouse IgG1 #1070-05, anti-mouse IgG2a # 1080-05, anti-mouse IgG2b #1090-05) according to the manufacturer's protocol. TMB was used as a substrate. The results were analyzed on Bio-Rad Microplate Reader Model 550, the optical density was measured at 595 nm.
Results shown in FIG. 1 represent titration slope of the serum from experimental mice. The dilutions of sera used are from 1/300 to 1/20,000 with a step of ½ (indicated on X axis as 1 to 6 respectively). The serum reactivity is presented as O.D. shown by a sample in ELISA. The dots represent the average reactivity of samples from 3 sera (from 3 mice per condition). The variation bar represents the 95% confidence interval.

For IEWIPY [B211], the “titer of IgG2a, times higher than in control mice immunized with antigen alone” value was about 4 times, the “titer of IgG2b, times higher than in control mice immunized with antigen alone” value was about 4 times and the “titre of specific IgG1 in sera, times higher than in control mice immunized with antigen alone” value was “approximately 16 times”.
Ile-Pro-Tyr [B134] was tested, and the “titer of IgG2a, times higher than in control mice immunized with antigen alone” value was “approximately 2 times”, the “titer of IgG2b, times higher than in control mice immunized with antigen alone” value was “approximately 2 times” and the “titer of IgM, times higher than in control mice immunized with antigen alone (every isotype analyzed)” value was “approximately 2 times”. The “titre of specific IgG1 in sera, times higher than in control mice immunized with antigen alone” value was “approximately 2 times”.
